# Measurements published in article PMC7156458, “Synthetic biology based construction of biological activity-related library of fungal decalin-containing diterpenoid pyrones” (Nature Communications, 2020).
# Like-named read-outs stand apart in the source and are kept apart here.
# Columns and labels:
# l(2)mbn cells = assay: cytotoxicity in Drosophila l(2)mbn cells; assay type: cell-based; conditions: for Luminescence Raw1: replicate 1; for Luminescence Raw2: replicate 2; for % viability, viability 2: replicate 2, relative to DMSO 1%; for % viability, viability 1: replicate 1, relative to DMSO 1%
# Procedure: (§1) We screened the DDPs on the Drosophila assay system for cytotoxicity, inhibitory activity of innate immune signalling and insecticidal activity. The cytotoxicity of the DDPs was evaluated using two cell lines, embryonic macrophage-derived DL1 cells[58]–[60] and larval blood cell-derived l(2)mbn cells, and their IC50 values are listed in Supplementary Table 23.
# [1] = cytotoxicity in Drosophila l(2)mbn cells; assay type: cell-based; conditions: Drosophila
# Procedure: as §1
# MCF-7 cells = assay: cell cytotoxic effects against MCF-7 cells (72 h), A490; assay type: cell-based, human
# Procedure: !" ' ' '! !" ' ' '! !" ' ' '!!" ' ' '!!" ' ' '!!" ' ' '!!" ' ' '!!" ' ' '! !" ' ' '! !" ' ' '! !" ' ' '! !"#$
# ( % ) * '! '' '# '+ '$ '( '%
# ! " # $ %& %% %' %( %) %! %"
# !" ' ' '! !" ' ' '!!" ' ' '!!" ' ' '!!" ' ' '!!" ' ' '!!" ' ' '! !" ' ' '! !" ' ' '! !" ' ' '! !" ' ' '! […]
# Supplementary Fig. 46. a, Cell cytotoxic effects of DDPs against MCF-7 cells (72 h).
# dose dependent cytotoxic effects against MCF-7 cells were tested their inhibitory activity against mammosphere
# formation. Compound in blue (16) was also performed mammosphere assay as negative control. Data represent
# mean±s.d. from three independent replicate experiments. […]
# Source data underlying Supplementary Figure 46a are provided in a Source Data file. […]
# [2] = replicate 1, relative to DMSO 1%, read-out: % viability, viability 1
# [3] = replicate 2, relative to DMSO 1%, read-out: % viability, viability 2
structure (smiles),measurement,setting,value
C=C1CCC2C(C)(CCC=C(C)C)C(O)CCC2(C)C1Cc1c(OC)oc(C)c(C)c1=O (centres unmarked) [Compound 11],Luminescence Raw1,l(2)mbn cells; 0.04 µM,4909467
same,Luminescence Raw2,l(2)mbn cells; 0.04 µM,3629794
same,"% viability, viability 2",l(2)mbn cells; 0.04 µM,57.8063%
same,Luminescence Raw1,l(2)mbn cells; 0.2 µM,5752008
same,Luminescence Raw2,l(2)mbn cells; 0.2 µM,4449089
same,Luminescence Raw1,l(2)mbn cells; 1 µM,2597064
same,"% viability, viability 1",l(2)mbn cells; 1 µM,41.3596%
same,Luminescence Raw2,l(2)mbn cells; 1 µM,1297263
same,"% viability, viability 2",l(2)mbn cells; 1 µM,20.6596%
same,Luminescence Raw1,l(2)mbn cells; 4 µM,133995
same,"% viability, viability 1",l(2)mbn cells; 4 µM,2.134%
same,Luminescence Raw2,l(2)mbn cells; 4 µM,142288
same,"% viability, viability 2",l(2)mbn cells; 4 µM,2.266%
same,Luminescence Raw1,l(2)mbn cells; 10 µM,107674
same,"% viability, viability 1",l(2)mbn cells; 10 µM,1.715%
same,Luminescence Raw2,l(2)mbn cells; 10 µM,99742
same,"% viability, viability 2",l(2)mbn cells; 10 µM,1.588%
same,Luminescence Raw1,l(2)mbn cells; 20 µM,126784
same,Luminescence Raw2,l(2)mbn cells; 20 µM,170772
same,IC50,"l(2)mbn cells; cytotoxicity, average±SEM",470 ± 210 nM
same,IC50,"l(2)mbn cells; read-out: IC50 (1), cytotoxicity, replicate 1",681 nM
same,IC50,"l(2)mbn cells; read-out: IC50 (2), cytotoxicity, replicate 2",259 nM
same,IC50,"l(2)mbn cells; read-out: IC50 Average, cytotoxicity, average of two replicates",470 nM
same,viability at 0.04 µM,"[1]; 0.04 µM, replicate 1, relative to DMSO 1%, read-out: % viability, viability 1",78.2%
same,viability at 0.2 µM,[1]; [2],91.6%
same,viability at 0.2 µM,[1]; [3],70.9%
same,viability at 20 µM,[1]; [2],2.02%
same,viability at 20 µM,[1]; [3],2.72%
same,cytotoxicity against the bulk of MCF-7 cells,MCF-7 cells,dose-dependent cytotoxicity
same,viability at 0.1 µM,"MCF-7 cells; Homo sapiens, MCF7, 72 h, MCF-7, 72 h, 0.1 µM (DMSO 0.002%), read-out: A490 (control =1) ave",92.2%
same,viability at 1 µM,"MCF-7 cells; Homo sapiens, MCF7, 72 h, MCF-7, 72 h, 1 µM (DMSO 0.02%), read-out: A490 (control =1) ave",34.3%
same,viability at 10 µM,"MCF-7 cells; Homo sapiens, MCF7, 72 h, MCF-7, 72 h, 10 µM (DMSO 0.2%), read-out: A490 (control =1) ave",21.4%
same,A490 ave,"MCF-7 cells; MCF-7, 72 h, 0.1 µM (DMSO 0.002%), control 1.064",0.981
same,A490 ave,"MCF-7 cells; MCF-7, 72 h, 1 µM (DMSO 0.02%), control 1.104",0.379
same,A490 ave,"MCF-7 cells; MCF-7, 72 h, 10 µM (DMSO 0.2%), control 1.049",0.224
